Read-outs that look alike come from different tables or passages of the source. Bridge positions count the residues as written; N and C are the ends. Square brackets hold non-standard residues; d marks the D form. Peptide text beside a SMILES is read from it. R8 = C=CCCCCCC[C@@](C)(N)C(=O)O; S5 = C=CCCC[C@](C)(N)C(=O)O
Tests used:
Mdm4 [1] = biological target: T1, Mdm4 (Homo sapiens, UniProt O15151); assay: Lysate CETSA, thermal stabilisation of Mdm4 in AML2 cell lysates; assay type: binding; design: endogenous in cells; host or cells: OCI/AML-2 (AML2) cells, pre-treated with MG132
T1 sequence (O15151 1-490): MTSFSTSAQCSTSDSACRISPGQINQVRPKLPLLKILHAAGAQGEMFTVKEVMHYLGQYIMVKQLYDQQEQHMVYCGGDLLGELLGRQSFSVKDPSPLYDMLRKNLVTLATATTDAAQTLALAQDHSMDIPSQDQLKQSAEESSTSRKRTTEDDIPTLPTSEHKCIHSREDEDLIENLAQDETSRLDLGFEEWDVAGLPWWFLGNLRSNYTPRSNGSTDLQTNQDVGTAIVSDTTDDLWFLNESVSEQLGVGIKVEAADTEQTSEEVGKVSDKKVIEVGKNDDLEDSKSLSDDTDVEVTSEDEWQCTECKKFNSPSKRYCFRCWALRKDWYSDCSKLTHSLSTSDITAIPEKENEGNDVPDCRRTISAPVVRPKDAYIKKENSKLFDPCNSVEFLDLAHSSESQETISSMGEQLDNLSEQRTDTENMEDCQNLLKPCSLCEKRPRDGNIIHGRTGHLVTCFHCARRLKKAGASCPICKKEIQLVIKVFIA
Protocol: (§1) Cells pre-treated with 10 μM MG132 for one hour were lysed in kinase buffer (25 mM Tris pH 7.4, 10 mM MgCl2, 2 mM DTT, 1x protease (Roche) and phosphatase inhibitor cocktails (Thermo Scientific)) by dounce homogenisation with a 2 ml Wheaton mortar and pestle. […] Following a 15 min incubation at room temperature with the drugs, the cell lysates were individually heated to the indicated temperatures for 2 min, cool at room temperature for 2 min, and placed on ice. Insoluble proteins were separated by centrifugation, and the soluble proteins were used for SDS PAGE and Western blotting for the indicated proteins. Three independent replicates were performed.
(§2) The relative signal intensities were plotted against temperature using Graphpad (Prism) and a variable slope sigmoidal curve was fitted by least squares for each data set using the following equation (1): [drawing 1]
(§3) Initial values for top and bottom plateaus were set at 1.0 and 0 respectively for curve fitting, while initial values for Tm50 and Hill Slope were automatically chosen. As the asymmetry of errors is small, errors were assumed to be symmetrical for statistical analyses.

[2] = biological target: Mdm2 (human (endogenous in OCI/AML-2)) (UniProt Q00987); assay: cellular thermal shift assay (CETSA); lysate CETSA: peptides at 10 uM added to 5 mg/ml AML2 cell lysate (kinase buffer: 25 mM Tris pH 7.4, 10 mM MgCl2, 2 mM DTT), 15 min at room temperature, heated 2 min, soluble protein by Western blot; dTm50 against the control
Mdm2 (human (endogenous in OCI/AML-2)), sequence (Q00987 whole entry): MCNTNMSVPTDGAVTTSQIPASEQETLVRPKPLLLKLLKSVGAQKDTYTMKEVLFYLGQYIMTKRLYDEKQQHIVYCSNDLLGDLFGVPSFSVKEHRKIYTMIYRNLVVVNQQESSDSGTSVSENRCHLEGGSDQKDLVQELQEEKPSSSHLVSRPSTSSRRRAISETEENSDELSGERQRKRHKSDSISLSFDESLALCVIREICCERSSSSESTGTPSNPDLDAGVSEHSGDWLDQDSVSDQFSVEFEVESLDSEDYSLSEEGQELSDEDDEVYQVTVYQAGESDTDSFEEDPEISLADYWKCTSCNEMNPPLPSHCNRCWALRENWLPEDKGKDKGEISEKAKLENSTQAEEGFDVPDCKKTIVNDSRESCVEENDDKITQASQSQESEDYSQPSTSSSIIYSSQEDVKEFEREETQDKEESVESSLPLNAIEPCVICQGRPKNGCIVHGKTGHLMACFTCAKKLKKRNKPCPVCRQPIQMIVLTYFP

[3] = biological target: Mdm4 (human (endogenous in OCI/AML-2)) (UniProt O15151); assay: as above
[4] = test system: p53 responsive β-galactosidase reporter in T22 cells; assay: T22 p53 β-galactosidase based reporter assay; assay type: cell-based; details: 18 h treatment, text points to Fig. 2a in Brown et al., 2013
Protocol: T22 cells, which were stably transfected with a p53 responsive β-galactosidase reporter, were seeded into 96-well plate at a cell density of 8000 cells per well[22]. Cells were maintained in Dulbecco’s Minimal Eagle Medium (DMEM) with 10% FBS and penicillin/streptomycin and incubated for 24 hours before treatment with the stapled peptides for 18 hours. β-galactosidase activity was assayed using the FluoReporter LacZ/Galactosidase Quantitation kit (Invitrogen) as per manufacturer’s instructions. Measurements were made using an Envision plate reader (Perkin Elmer). Experiments were carried out independently thrice.

Mdm2 [5] = biological target: T2, Mdm2 (Homo sapiens, UniProt Q00987); design: method as in 3 sources, ref 10 = [10]; PMID 23214419; doi:10.1021/cb3005148; Brown C. J. et al. Stapled Peptides with Improved Potency and Specificity That Activate p53 . ACS Chem. Biol . 8 , 506 – 512 ( 2013 ). 23214419 10.1021/cb3005148 ||| ref 11 = [11]; PMID 23946421; doi:10.1073/pnas; Chang Y. S. et al. Stapled α−helical peptide drug development: A potent dual inhibitor of MDM2 and MDMX for p53-dependent cancer therapy . Proc. Natl. Acad. Sci . 201303002 (2013). 10.1073/pnas .13030 ||| ref 6 = [6]; PMID 14704432; doi:10.1126/science.1092472; Vassilev L. T. et al. In vivo activation of the p53 pathway by small-molecule antagonists of MDM2 . Science 303 , 844 – 848 ( 2004 ). 14704432 10.1126/science.1092472; details: competition assay, cited from earlier work
T2 sequence (Q00987 whole entry): as above

Mdm4 [6] = biological target: T1, Mdm4; design: method as in 3 sources, ref 10 = [10]; PMID 23214419; doi:10.1021/cb3005148; Brown C. J. et al. Stapled Peptides with Improved Potency and Specificity That Activate p53 . ACS Chem. Biol . 8 , 506 – 512 ( 2013 ). 23214419 10.1021/cb3005148 ||| ref 11 = [11]; PMID 23946421; doi:10.1073/pnas; Chang Y. S. et al. Stapled α−helical peptide drug development: A potent dual inhibitor of MDM2 and MDMX for p53-dependent cancer therapy . Proc. Natl. Acad. Sci . 201303002 (2013). 10.1073/pnas .13030 ||| ref 6 = [6]; PMID 14704432; doi:10.1126/science.1092472; Vassilev L. T. et al. In vivo activation of the p53 pathway by small-molecule antagonists of MDM2 . Science 303 , 844 – 848 ( 2004 ). 14704432 10.1126/science.1092472; details: competition assay, cited from earlier work
Mdm2 [7] = biological target: T2, Mdm2; assay: Whole cell CETSA, Mdm2
Protocol: (§4) Cells were pre-treated with 10 μM MG132 for one hour before a four hour treatment with the indicated drugs. They were then aliquoted for heating to different temperatures for 2 min, cooled at room temperature for 2 min and placed on ice. Kinase buffer was added to the cells, followed by lysis with three freeze/thaw cycles in liquid nitrogen. Insoluble proteins were separated by centrifugation, and the soluble proteins were used for SDS PAGE and Western blotting. Three independent experiments were performed.
as §2, §3

Mdm4 [8] = biological target: T1, Mdm4; assay: Whole cell CETSA, Mdm4; details: whole cells 25 μM
Protocol: as §4, §2, §3

Mdm2 [9] = biological target: T2, Mdm2; assay: Lysate CETSA, thermal stabilisation of Mdm2 in AML2 cell lysates; assay type: binding; design: endogenous in cells; host or cells: OCI/AML-2 (AML2) cells, pre-treated with MG132; details: Fig. 1a, 10 μM in 5 mg/ml AML2 cell lysates, three independent replicates
Protocol: as §1, §2, §3

[10] = biological target: Mdm2 (human (endogenous in OCI/AML-2)) (UniProt Q00987); assay: cellular thermal shift assay (CETSA); whole cell CETSA: OCI/AML-2 cells pre-treated with 10 uM MG132 for 1 h, then 25 uM Staplin-2 for 4 h, intact cells heated 2 min, lysed by freeze/thaw, soluble protein by Western blot; compared with the lysate CETSA
[11] = biological target: Mdm4 (human (endogenous in OCI/AML-2)) (UniProt O15151); assay: as above
[12] = no reference number printed in the cell, footnote: IC50s are obtained from the references indicated

CC(C)C[C@H](NC(=O)c1ccc2c(c1)C(=O)OC21c2ccc(O)cc2Oc2cc(O)ccc21)C(=O)N[C@H](C(=O)N[C@@H](Cc1ccccc1)C(=O)N[C@]1(C)CCCCCCC=CCCC[C@@](C)(C(=O)N[C@@H](CO)C(=O)N[C@@H](C)C(=O)N[C@@H](C)C(N)=O)NC(=O)[C@H](CC2CCC2)NC(=O)[C@H](CCC(N)=O)NC(=O)[C@H](C)NC(=O)[C@H](Cc2c[nH]c3ccccc23)NC(=O)[C@H](Cc2ccc(O)cc2)NC(=O)[C@H](CCC(=O)O)NC1=O)[C@@H](C)O [ATSP-7041 ^FAM]
Mdm4 ΔTm50 (±95% CI) (Mdm4 [1]; Fig. 2c, labelled and unlabelled stapled peptides, AML2 cell extracts, 15 min): 1.11 (1.65) °C

FAM-labelled Staplin-2 (peptide)
thermal shift less than that of unlabelled Staplin-2 [2]: 2.71 °C
thermal shift less than that of unlabelled Staplin-2 [3]: 2.99 °C

Ac-^1TSFXrEYW(6Cl)WALLXs^11-NH2 (sidechain bridge or staple) [Staplin-2]
p53 activation measured by β-galactosidase activity with increasing concentrations [4]: correspondingly increasing p53 activity and plateaued off at maxima
IC50 (Mdm2 [5]): 0.32 ± 0.02 µM
IC50 (Mdm4 [6]): 3.49 ± 0.63 µM
ΔΔTm50 (±95% CI) Mdm2, lysate versus whole cell (Mdm2 [7]; Fig. 3b, whole cells 25 μM): 4.01 °C
mean thermal shift from the whole cell CETSA as % of the mean thermal shift for the cell lysate CETSA, Mdm2 (Mdm2 [7]; whole cells 25 μM): 40%
ΔΔTm50 (±95% CI) Mdm4, lysate versus whole cell (Mdm4 [8]; Fig. 3b): 3.58 °C
mean thermal shift from the whole cell CETSA as % of the mean thermal shift for the cell lysate CETSA, Mdm4 (Mdm4 [8]): 33%
Mdm2: ΔTm50 (±95% CI) (Mdm2 [9]; versus control): 6.58 °C
Mdm4: ΔTm50 (±95% CI) (Mdm4 [1]; Fig. 1b, 10 μM in 5 mg/ml AML2 cell lysates, versus control, three independent replicates): 5.44 °C

Staplin (peptide)
ΔTm50 [2]: 6.76 °C
ΔTm50 [3]: 5.48 °C

Ac-^1LTFXrEYWAQ(Cba)XSSAA^14-NH2 (sidechain bridge or staple) [ATSP-7041, reference compound]
p53 activation measured by β-galactosidase activity with increasing concentrations [4]: correspondingly increasing p53 activity and plateaued off at maxima
IC50 (Mdm4 [6]): 2.31 µM

CC(=O)N[C@H](C(=O)N[C@@H](CO)C(=O)N[C@@H](Cc1ccccc1)C(=O)N[C@]1(C)CCCCCCC=CCCC[C@@](C)(C(N)=O)NC(=O)[C@H](CC(C)C)NC(=O)[C@H](CC(C)C)NC(=O)[C@H](C)NC(=O)[C@H](Cc2c[nH]c3ccccc23)NC(=O)[C@H](Cc2ccc(O)cc2)NC(=O)[C@H](CCC(=O)O)NC1=O)[C@@H](C)O [Staplin]
IC50 (Mdm4 [6]): 0.66 ± 0.06 µM
ΔTm at 10 µM (Mdm2 [9]; human, 0.25 h, versus control, read-out: Mdm2: ΔTm50 (±95% CI)): 6.76 °C
ΔTm at 10 µM (Mdm4 [1]; human, 0.25 h, Fig. 1b, 10 μM in 5 mg/ml AML2 cell lysates, versus control, three independent replicates, read-out: Mdm4: ΔTm50 (±95% CI)): 5.48 °C

Staplin-2 (peptide)
mean thermal shift in whole cell CETSA as percent of that in cell lysate CETSA [10]: 40%
ΔΔTm50 (whole cell CETSA against cell lysate CETSA) [10]: 4.01 °C
mean thermal shift in whole cell CETSA as percent of that in cell lysate CETSA [11]: 33%
ΔΔTm50 (whole cell CETSA against cell lysate CETSA) [11]: 3.58 °C
ΔTm50 [2]: 6.58 °C
ΔTm50 [3]: 5.44 °C

COc1ccc(C2=N[C@@H](c3ccc(Cl)cc3)[C@@H](c3ccc(Cl)cc3)N2C(=O)N2CCNC(=O)C2)c(OC(C)C)c1 [Nutlin-3, nutlin-3, reference compound]
Mdm2 ΔΔTm50 (±95% CI), lysate versus whole cell (Mdm2 [7]; Fig. 3a, 10 μM): 0.24 ± 1.42 °C
Mdm2: Tm50 (mean +95% CI −95% CI) (Mdm2 [9]; 15 min room temperature, heated 2 min, Western blot): 55.9 °C

ATSP-7041 (peptide)
thermal shift (ΔTm50) [2]: 1.52 °C

CC(=O)N[C@H](C(=O)N[C@@H](CO)C(=O)N[C@@H](C)C(=O)N[C@]1(C)CCCCCCC=CCCC[C@@](C)(C(N)=O)NC(=O)[C@H](C)NC(=O)[C@H](CC(C)C)NC(=O)[C@H](C)NC(=O)[C@H](C)NC(=O)[C@H](Cc2ccc(O)cc2)NC(=O)[C@H](CCC(=O)O)NC1=O)[C@@H](C)O [Staplin-Control, reference compound] (Ac-TSA[R8]EYAALA[S5]-NH2; staple 4-11)
IC50 (Mdm2 [5]; [12]): > 10 µM
IC50 (Mdm4 [6]; [12]): > 10 µM

FAM-labelled ATSP-7041 (peptide)
decrease in thermal shift against unlabelled ATSP-7041 [3]: 0.4 °C

From publication PMC4498326, “Assessing the Efficacy of Mdm2/Mdm4-Inhibiting Stapled Peptides Using Cellular Thermal Shift Assays” (Scientific Reports, 2015)
